Assay results as given in patent publication US20190284192A1, “NITROGENOUS MACROCYCLIC COMPOUND, PREPARATION METHOD THEREFOR, PHARMACEUTICAL COMPOSITION AND APPLICATION THEREOF” (LUOXIN PHARMACEUTICAL (SHANGHAI) CO., LTD., priority 2016, published 2019).
Like-named read-outs stand apart in the source and are kept apart here.

Columns and labels:
[1] = target: T1, BRD4 (BD1) (Homo sapiens, UniProt O60885); assay: BRD4 (BD1) bromodomain binding, HTRF; conditions: 2 h incubation at r.t.
T1 construct: Each member comprises two tandem bromodomains (BD1 and BD2) for recognizing the acetylated lysine residues

[2] = target: T2, BRD4 (BD2) (Homo sapiens, UniProt O60885); assay: BRD4 (BD2) bromodomain binding, HTRF; conditions: 2 h incubation at r.t.
T2 construct: Each member comprises two tandem bromodomains (BD1 and BD2) for recognizing the acetylated lysine residues

[3] = system: MV-4-11 cells; assay: Inhibitory effect on MV-4-11 cells (CellTiter-Glo); type: cell-based; conditions: Homo sapiens, MV4-11; 72 hours, CellTiter-Glo; read-out: MV-4-11
Protocol: The 1st Day: Seed the Cells on the Plate
1. The cells were verified that they were in good conditions by observation under microscope;
2. The cells were transferred to a 15 mL centrifuge tube, after centrifuged at 1000 rpm for 5 min, the supernatant was discarded;
3. The complete medium (IMDM+10% FBS) was added, then blown and patted into single cell suspension, counted by Vi-cell cytometer, the cell suspension was adjusted to desired cell density by the complete medium.
4. The cells were inoculated into a 96 well plate, the cell number was 15000/well at 100 μL per well, 100 μL complete medium was added into the black control.
5. 37° C., 5% CO2 culture overnight.
The 2nd Day: Addition of the Drugs
1. 1000× Compound Plate Preparation
1.1. The test compound was prepared into 10 mM working solution by using DMSO. Then the STS was prepared into 2 mM working solution by using DMSO.
1.2. In the round bottom 96 wells plate, the column 2 of row A to H was added into 60 μL 10 mM test compound (or STS) working solution, columns 3-11 were added into 40 μL DMSO, 20 μL drug solution was pipetted from the column 2 to the column 3, blown and patted for a homogeneous mixture; then 20 μL solution was pipetted from the column 3 to the column 4, blown and patted for a homogeneous mixture, sequently, the drug was diluted by 3 times, 10 concentrations in total. The columns 1 and 12 were supplemented with 40 μL of DMSO.
2. Intermediate plate areparation
A sterile V-bottom 96 deep well plate was used and in each well, 495 μL FBS-free PRMI 1640 medium was added, then 5 μL of the diluted compound (or DMSO) in the 1000× compound plate was pipetted into corresponding position of the V-bottom 96 well plate, blown and patted evenly.
3.1. The cell plate was taken out from the incubator and was observed under microscope. The diluted compound or DMSO in the intermediate plate was added into the cell plate, 11 μL each well.
3.2. The cell was continued to be cultured at 37° C., 5% CO2 for 72 hours.
The 5th Day: CellTiter-Glo Detection of the Cell Activity
1. The CellTiter-Glo buffer and the reaction substrate were taken out from the refrigerator, after balanced to r.t., the buffer was poured into a brown bottle containing the substrate, the bottle was upside down to have the substrate powder sufficientaly dissolved.
2. The cell was observed under microscope; the cell plate was balanced to r.t.
3. The prepared CellTiter-Glo was added into the 96 well plate, at 100 μL/well.
4. The cell plate was placed on a shaker for 10 min, followed by standing at r.t. for 10 min.
5. A white seal film was attached to the bottom of the well plate, and the chemiluminescence signal of each well was detected by the Enspire microplate detector.
6. XLfit was used for data processing. Inhibition rate %=(d−c)/(d−b)×100, while d is the signal value of the DMSO treated group, c is the signal value of the compound treated group, b is signal value of the blank control that only containing medium and DMSO without cells. The data was fitted using the f(x)205[fit=(A+((B−A)/(1+((C/x)^∧D))))] equation in the XLfit software.

[4] = Metabolic stability in human liver microsomes; type: in vitro ADME; conditions: human liver microsomes 0.5 mg/mL, NADPH, 37° C.; for CLint scaled at 1 µM: pH 7.4, read-out: HLM_CLint
Protocol: (§1) Determinations of the metabolic stability of the compound from the above embodiments, the detailed operation steps are as followed:
(§2) 1. Preparation of buffer C:
(§3) Buffer A: 1.0 L of 0.1 M potassium dihydrogen phosphate buffer (containing 1.0 mM EDTA);
(§4) Buffer B: 1.0 L of 0.1 M dipotassium hydrogen phosphate buffer (containing 1.0 mM EDTA);
(§5) Buffer C: 500 mL Buffer B was titrated with Buffer A to pH 7.4.
(§6) 2. 10 mM stock solution preparation:
(§7) 10 mM test compound: A certain amount of the test compound was weighed and dissolved in DMSO.
(§8) 10 mM control: 5.455 mg of ketanserin dissolved in 1 mL DMSO.
(§9) 3. Preparation of the drug solution:
(§10) 500 μM solution: 5 μL of 10 mM stock solution (see step 2) was added into 95 μL ACN;
(§11) 1.5 μM dosing solution (dissolved in liver microsome solution):
(§12) 18.75 μL of 20 mg/mL liver microsomes was added into 479.75 μL of Buffer C, then 1.5 μL of 500 μM solution was added and mixed gently by shaking.
(§13) 4. Preparation of 6 mM NADPH solution:
(§14) 15 mg NADPH was weighted, then added into 3 mL of buffer C to prepare a 6 mM NADPH solution.
(§15) 5. 30 µL of 1.5 μM dosing solution (see step 3) was added into the wells of the 96-well plate set at different time points (0 minutes, 5 minutes, 15 minutes, 30 minutes, 45 minutes), number of dulplicate sample is 2.
(§16) 6. Preparation of a 0 minutes sample: 135 μL ACN (with internal standard) was added to the 0 minutes well, followed by 15 µL of 6 mM NADPH solution.
(§17) 7. The 96-well plate containing 1.5 μM dosing solution and NADPH solution were preheated in a 37° C. water bath for 5 minutes.
(§18) 8. The 15 µL of 6 mM NADPH solution preheated was added into the wells set to 5 minutes, 15 minutes, 30 minutes, 45 minutes, then the reaction was initiated and started counting the time.
(§19) 10. The sample was vortexed for 10 min, and then centrifuged for 15 minutes on a centrifuge (Thermo Multifuge×3R) using 5594×g.
(§20) 11. 50 μL of the supernatant was taken from the centrifuged sample, transferred to a 96-well sample plate to which 100 μL of ultrapure water had already been added, mixed, and finally sent to LC-MS/MS for analysis.
(§21) Half time (T1/2)=0.693/K (K is the rate constant obtained by linear regression of the logarithm of the concentration as vertical coordinates and the culturing time as the abscissa)
(§22) 2. According to the equation formula bellow, Excel was used to plot the compound content versus reaction time, as well as half life calculation (min)
(§23) Y=(Y0−Plateau)×e^(−K*X)+Plateau
(§24) Y0 represents the compound content at 0 minutes; Y represents the compound content; X represents the time point; K represents degration rate constant of the compound; Plateau represents the lowest possible content of the compound (defined herein as 0).

[5] = Metabolic stability in mouse liver microsomes; type: in vitro ADME; conditions: mouse liver microsomes 0.5 mg/mL, NADPH, 37° C.; for CLint scaled at 1 µM: pH 7.4, read-out: MLM_CLint
Protocol: as §1, §2, §3, §4, §5, §6, §7, §8, §9, §10, §11, §12, §13, §14, §15, §16, §17, §18, §19, §20, §21, §22, §23, §24

[6] = Cassette pharmacokinetic study, intravenous or oral administration; type: in vivo, female Balb/c nude mice; parameters: Cmax: unit not given here; conditions: for F: PO 2 mg/kg vs IV 0.5 mg/kg; for Cmax / AUC(0-inf) / AUC(0-t) / MRT inf / clearance / half-life / Vd / Tmax: N = 3, cassette; for AUC(0-inf) / AUC(0-t) / MRT inf / clearance / half-life / Vd / Tmax: female, Balb/c nude, mouse, whole blood; for half-life: read-out: Terminal t1/2 (converted); for Vd: read-out: Vss
Protocol: Determinations of the pharmacokinetic parameters of ABBV-075 (standard control), 4009, 4018, 4026 and 4031 in femal Balb/c nude mice after intravenous or oral administration.
Detailed Experimental Steps:
6 female Balb/c nude mice weighing 18-20 g were divided into two groups (3/group), after fixation, the intravenous group: 0.5 mg/kg (5 mL/kg) injected by caudal vein (N=3); the oral group: 2 mg/kg (10 mL/kg) by intragastic administration (N=3). Approximately 20 μL of blood was drawn behind the eyeball at the sampling point and placed in EDTA-2K tube. The sample was immediately diluted with 40 μL of double distilled water and vortexed until well mixed. Blood samples were stored at approximately −70° C. and submitted to the BA group for analysis (LC/MS). 30 μL of blood sample was added with 200 μL of H2O and 30 μL of IS dexamethasone, 200 ng/mL), layered by LLE, and 1 mL of MTBW was added as an organic extraction solvent. The mixture was vortexed for 10 min and centrifuged at 10,000 rpm for 5 min. 850 μL of the supernatant was evaporated under nitrogen until desiccated. The desiccated extract was re-mixed with 150 μL of 50% methanol, vortexed for 2 min, and then analyzed by injecting 5 μL of the supernatant into LC-MS/MS.
2. Intravenous/oral administration formula: 5% DMSO, 95% (10% HP-3-CD in water)
3. PK calculation parameter used non-compartment model, WinNonlin 6.4 software calculation

SMILES	IC50 [1] [nM]	IC50 [2] [nM]	IC50 [3] [nM]	HLM_T1/2 [4]	CLint scaled at 1 µM [4] [mL/min/kg]	MLM_T1/2 [5]	CLint scaled at 1 µM [5] [mL/min/kg]	F [6] [%]	Cmax ([6]; PO 2 mg/kg)	AUC(0-inf) ([6]; IV 0.5 mg/kg) [ng·h/mL]	AUC(0-t) ([6]; IV 0.5 mg/kg) [ng·h/mL]	MRT inf ([6]; IV 0.5 mg/kg) [h]	clearance ([6]; IV 0.5 mg/kg) [mL/min/kg]	half-life ([6]; IV 0.5 mg/kg) [h]	Vd ([6]; IV 0.5 mg/kg) [L/kg]	AUC(0-inf) ([6]; PO 2 mg/kg) [ng·h/mL]	AUC(0-t) ([6]; PO 2 mg/kg) [ng·h/mL]	Tmax ([6]; PO 2 mg/kg) [h]	half-life ([6]; PO 2 mg/kg) [h]
CCS(=O)(=O)Cc1ccc2c(c1)-c1cn(C)c(=O)cc1CN=C2c1ccc(F)cc1F [Compound 4012, 7-(2,4-difluorophenyl)-2-methyl-10-(ethylsulfonemethyl)-2H-benzo[c]pyrido[3,4-e]azepin-3(5H)-ketone]	4	2	80	1473.23 min	1.18	1568.22 min	3.48	–	–	–	–	–	–	–	–	–	–	–	–
CCNC(=O)C[C@@H]1N=C(c2ccc(Cl)cc2)c2ccccc2-c2cn(C)c(=O)cc21 [Compound 4016, (S)-2-(7-(4-chlorophenyl)-2-methyl-3-oxo-3,5-dihydro-2H-benzo[c]pyrido[3,4-e]azepin-5-yl)-N-ethylacetamide]	3	1	16	34.22 min	50.8	21.37 min	255	–	–	–	–	–	–	–	–	–	–	–	–
Cn1cc2c(cc1=O)[C@H](CC(N)=O)N=C(c1ccc(Cl)cc1)c1ccccc1-2 [Compound 4017, (S)-2-(7-(4-chlorophenyl)-2-methyl-3-oxo-3,5-dihydro-2H-benzo[c]pyrido[3,4-e]azepin-5-yl)acetamide]	4	2	10	854.27 min	2.03	215.28 min	25.4	–	–	–	–	–	–	–	–	–	–	–	–
CCS(=O)(=O)Nc1ccc2c(c1)-c1cn(C)c(=O)cc1CN=C2c1ccc(F)cc1 [Compound 4018, N-(7-(4-fluorophenyl)-2-methyl-3-oxo-3,5-dihydro-2H-benzo[c]pyrido[3,4-e]azapin-10-yl)ethanesulfonamide]	3	2	5	1043.26 min	1.67	352.12 min	15.5	12.2	41.9	201	199	0.59	41.8	0.685	1.51	98.1	89.7	0.667	2.18
CCNC(=O)C[C@@H]1N=C(c2ccc(F)cc2)c2cc(OC)ccc2-c2cn(C)c(=O)cc21 [Compound 4023, (S)—N-ethyl-2-(7-(4-fluorophenyl)-9-methoxy-2-methyl-3-oxo-3,5-dihydro-2H-benzo[c]pyrido[3,4-e]azepin-5-yl)acetamide]	3	1	9	121.24 min	14.3	75.05 min	72.7	–	–	–	–	–	–	–	–	–	–	–	–
CCS(=O)(=O)Nc1cc2c(cc1Cl)C(c1ccc(F)cc1)=NCc1cc(=O)n(C)cc1-2 [Compound 4031, N-(9-chloro-7-(4-flurophenyl)-2-methyl-3-oxo-3,5-dihydro-2H-benzo[c]pyrido[3,4-e]azepin-10-yl)ethylsulfonamide]	2	1	3	∞	–	∞	–	108	1009	771	729	3.5	10.9	2.72	2.34	3330	3300	0.5	3.84
CC[C@@H]1N=C(c2ccc(F)cc2)c2ccc(CS(=O)(=O)CC)cc2-c2cn(C)c(=O)cc21 [Compound 4038, (S)-5-ethyl-10-((ethylsulfonyl)methyl)-7-(4-flurophenyl)-2-methyl-2,5-dihydro-3H-benzo[c]pyrido[3,4-e]azepin-3-ketone]	2	1	4	∞	–	∞	–	–	–	–	–	–	–	–	–	–	–	–	–
C[C@@H]1N=C(c2ccc(F)cc2)c2ccc(CS(N)(=O)=O)cc2-c2cn(C)c(=O)cc21 [Compound 4071, (S)-(7-(4-flurophenyl)-2,5-dimethyl-3-oxo-3,5-dihydro-2H-benzo[c]pyrido[3,4-e]azepin-10-yl)methane sulfamide]	2	1	10	∞	–	∞	–	–	–	–	–	–	–	–	–	–	–	–	–
CNS(=O)(=O)Cc1ccc2c(c1)-c1cn(C)c(=O)cc1[C@H](C)N=C2c1ccc(F)cc1 [Compound 4072, (S)-1-(7-(4-flurophenyl)-2,5-dimethyl-3-oxo-3,5-dihydro-2H-benzo[c]pyrido[3,4-e]azepin-10-yl)-N-methylmethane sulfamide]	1	1	6	∞	–	372.45 min	14.7	–	–	–	–	–	–	–	–	–	–	–	–
C[C@@H]1N=C(c2ccc(F)cc2)c2ccc(CS(=O)(=O)N(C)C)cc2-c2cn(C)c(=O)cc21 [Compound 4073, (S)-1-(7-(4-flurophenyl)-2,5-dimethyl-3-oxo-3,5-dihydro-2H-benzo[c]pyrido[3,4-e]azepin-10-yl)-N,N-dimethylmethane sulfamide]	1	1	2	139.87 min	12.4	156.12 min	35	–	–	–	–	–	–	–	–	–	–	–	–
CCS(=O)(=O)Cc1ccc2c(c1)-c1cn(C)c(=O)cc1N(C)N=C2c1ccc(F)cc1 [Compound 4078, 10-((ethylsulfonyl)methyl)-7-(4-flurophenyl)-2,5-dimethyl-2,5-dihydro-3H-benzo[e]pyrido[4,3-c][1,2]diazepin-3-ketone]	5	2	14	727.04 min	2.39	195.55 min	27.9	–	–	–	–	–	–	–	–	–	–	–	–
CCS(=O)(=O)Cc1ccc2c(c1)-c1nn(C)c(=O)cc1C(C)N=C2c1ccc(F)cc1 (stereo not shown) [Compound 4081, 10-((Ethylsulfonyl)methyl)-7-(4-flurophenyl)-2,5-dimethyl-2,5-dihydro-3H-benzo[c]pyridazino[3,4-e]azepin-3-ketone]	6	3	30	2952.57 min	0.59	∞	–	–	–	–	–	–	–	–	–	–	–	–	–
